The record followed here is patent publication US7217733B2, “ACE inhibitor derivatives” (priority 2003, dated 2007).

Each structure is given as a SMILES string. Where a name gives a salt, the structure may show the parent alone.

Data set [1] relates to isolated rabbit thoracic aorta preparations. As to the kind of experiment: Study on vascular tone: vasorelaxation of noradrenaline-precontracted aortic rings. The data set is classed as cell-based. The settings on record: for IC50: Oryctolagus cuniculus, concentration giving 50% reversal of NA (1 μM) contraction, rabbit thoracic aorta rings with functional endothelium, read-out: IC50 (μM) ± sem. The method, then:
The ability of ACE inhibitor nitroderivatives to induce vasorelaxation in comparison to native ACE inhibitors, was tested in vitro in isolated rabbit thoracic aorta preparations (Wanstall J. C. et al., Br. J. Pharmacol., 134:463–472, 2001). Male New Zealand rabbits were anaesthetized with thiopental-Na (50 mg/kg, iv), sacrificed by exsanguinations and then the thorax was opened and the aorta dissected. Single ring preparations (4 mm in length) of thoracic aorta were set up in physiological salt solution (PSS) at 37° C. in small organ chambers (5 ml). The composition of PSS was (mM): NaCl 130, NaHCO3 14.9, KH2PO4 1.2, MgSO4 1.2, HEPES 10, CaCl2, […] (95% O2/5% CO2; pH 7.4). Each ring was mounted under 2 g passive tension in 5 ml organ bath. Isometric tension was recorded with a Grass transducer (Grass FT03) attached to a BIOPAC MP150 System. Preparations were allowed to equilibrate for 1 h, then contracted submaximally with noradrenaline (NA, 1 μM) and, when the contraction was stable, acetylcholine (ACh, 10 μM) was added. A relaxant response to ACh indicated the presence of a functional endothelium. When a stable precontraction was reached, a cumulative concentration-response curve to either of the vasorelaxant agents was obtained in the presence of a functional endothelium. Time intervals between different concentrations were based on the time needed to reach a full response. Moreover, the effect of the soluble guanylyl cyclase inhibitor ODQ (1-H-(1,2,4)-oxadiazol(4,3-a)quinoxalin-1-one) on the dilator responses elicited by the compounds was examined preincubating the aortic rings with ODQ (10 μM) for 20 min. Responses to vasorelaxing agents were measured from the plateau of NA contraction. The IC50 (concentration giving 50% reversal of NA contraction) was interpolated from the plots of relaxant-response vs log molar concentration of tested compound.
IC50 is the concentration which inhibits 50% of the response.

The test system of data set [2] is rats with renal mass reduction (RMR). As to the kind of experiment: Proteinuria and renal disease progression in rats with renal mass reduction (RMR). The settings on record: for effect on proteinuria (in words): repeated oral treatment, at 3 months. The class given is in vivo, rat. The method, then:
Sprague-Dawley rats underwent right nephrectomy and ligation of two or tree branches of the main renal artery according to Olson et al. (1982). […] A group of sham operated rats was also included (Sham). Urinary protein excretion measurements were performed before the treatment and every month thereafter. Twenty-four hour urine samples were collected using metabolic cages and proteinuria was determined by the modified Coomassie Blu G dye-binding assay for the proteins with bovine serum albumin as standard.

The next data set addresses T1, ACE (Mus musculus, UniProt P09470).
T1 construct: The plasma was stored at −20° C. until the ACE activity measurements; from tissue; host or cells: plasma of CD1 mice (heparinized blood from the vena cava)
T1 sequence (P09470 35-1237 limits assumed): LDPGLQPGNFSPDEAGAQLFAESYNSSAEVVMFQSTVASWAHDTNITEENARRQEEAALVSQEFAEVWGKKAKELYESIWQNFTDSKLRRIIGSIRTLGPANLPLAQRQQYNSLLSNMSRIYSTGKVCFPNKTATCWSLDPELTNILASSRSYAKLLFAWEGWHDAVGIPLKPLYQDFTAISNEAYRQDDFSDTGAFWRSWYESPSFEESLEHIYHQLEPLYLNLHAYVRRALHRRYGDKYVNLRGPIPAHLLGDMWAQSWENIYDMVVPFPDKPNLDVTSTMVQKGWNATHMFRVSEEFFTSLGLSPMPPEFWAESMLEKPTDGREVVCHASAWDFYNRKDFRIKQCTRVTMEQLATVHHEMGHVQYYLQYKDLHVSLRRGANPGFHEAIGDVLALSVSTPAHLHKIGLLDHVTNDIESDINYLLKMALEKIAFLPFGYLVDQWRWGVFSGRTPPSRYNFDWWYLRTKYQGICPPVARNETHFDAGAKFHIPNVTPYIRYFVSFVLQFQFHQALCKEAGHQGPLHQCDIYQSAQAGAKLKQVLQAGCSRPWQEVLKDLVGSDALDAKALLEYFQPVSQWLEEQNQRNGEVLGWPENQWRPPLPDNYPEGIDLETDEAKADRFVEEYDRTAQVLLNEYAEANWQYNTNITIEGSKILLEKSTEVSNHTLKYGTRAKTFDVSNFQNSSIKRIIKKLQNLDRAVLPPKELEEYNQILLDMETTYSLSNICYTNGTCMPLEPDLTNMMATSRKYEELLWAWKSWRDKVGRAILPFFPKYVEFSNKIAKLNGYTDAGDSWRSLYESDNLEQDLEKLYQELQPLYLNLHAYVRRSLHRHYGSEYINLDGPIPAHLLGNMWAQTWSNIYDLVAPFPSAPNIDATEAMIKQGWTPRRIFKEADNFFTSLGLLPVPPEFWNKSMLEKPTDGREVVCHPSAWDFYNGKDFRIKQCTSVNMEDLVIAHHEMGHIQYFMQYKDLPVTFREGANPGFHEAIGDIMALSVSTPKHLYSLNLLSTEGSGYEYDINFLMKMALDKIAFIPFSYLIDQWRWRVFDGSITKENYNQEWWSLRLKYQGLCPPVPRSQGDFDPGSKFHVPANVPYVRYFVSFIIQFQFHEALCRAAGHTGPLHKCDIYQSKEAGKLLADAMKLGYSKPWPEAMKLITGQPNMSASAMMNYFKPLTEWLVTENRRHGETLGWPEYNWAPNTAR
Description: Plasma ACE activity in CD1 mouse after i.v. dosing (FAPGG spectrophotometric method). The data set is classed as in vivo. The settings on record: % vs basal condition. The procedure: CD1 mouse were treated i.v. with a single dose of 3 mg/Kg of enalapril and with a equimolar doses of enalapril nitroderivatives (compound of Ex. 3; 3.6 mg/Kg) and NO-ENA (3.92 mg/Kg). […] Heparinized blood samples were centrifuged at 1000 g for 20 min at 4° C. The plasma was stored at −20° C. until the ACE activity measurements. The ACE activity was determined by a spectrophotometric method (Sigma) based on the enzymatic reaction catalysed by ACE, where the FAPGG was hydrolysed to FAP. FAPGG hydrolysis produced a decrease in the absorbance at 340 nm, a marker of ACE activity in the sample.
The results, reported in Table 3, are expressed as % of ACE activity vs basal condition.

The test system of data set [3] is L-NAME-induced hypertension in rats. Description: L-NAME-induced hypertension in rats. The class given is in vivo, rat. The settings on record: for Systolic blood pressure (mmHg): 2 hours after administration, equimolar doses, basal 140. The method, then:
Male Wistar rats weighing 225–250 g were used. The rats were divided into two groups. Under halothane anesthesia, radiotelemetry probes were inserted into descending aorta to measure systolic blood pressure (SBP). Baseline blood pressure was recovered (103 mmHg). Both groups were then provided with drinking water supplemented with L-NAME (400 mg/L) for 7 days to induce hypertension. After this treatment all the animals have a SBP of about 140 mmHg. The rats were then treated orally each day with enalapril or an equimolar dose of enalapril-nitroderivative (compound Ex. 3). Blood pressure recordings were made 2 hours after drug administration. The study was continued over three days period of drug administration.

For another data set, the system named is SHR rats. As to the kind of experiment: Hypotensive properties in SHR rats. The class given is in vivo, rat. As to conditions: i.v. bolus injection of equimolar doses, conscious SHR rats. The method, then:
After at least 5 days after surgical catheterization of the arterial and venous femoral, conscious old (>9 months) male SHR rats were injected iv bolus with Enalapril, compound of Ex. 3 (equimolar doses) and vehicle (saline) (0.0335 mL/100 g body weight). Blood pressure and heart rate were recorded before (control period 1 h) and after IV bolus administration for up to 4 h.

A short description of data set [4]: NO release (NOx formation) in rat plasma. The class given is in vitro ADME. As to conditions: 250 μM, up to 240 min. The method, then:
Rat blood was freshly collected with Na-heparin as anticoagulant from male Sprague Dawley rats weighing about 300–330 g. Blood was immediately centrifuged to obtain plasma. Plasma was incubated for up to 240 min at 37° C. in presence of either compound of Ex. 3 (250 μM) or of NO-ENA (250 μM). At fixed times points samples were withdrawn from the incubation and NOx (nitrites+nitrates), the oxidative products of NO, were determined by GPC (gas phase chemiluminescence).

The mark [5] stands for this setting: 3rd month of daily oral treatment, Compound of Ex. 3 50 mg/kg, enalapril 7.5 mg/kg.
The mark [6] stands for this setting: 21 days after renal ablation, before the treatment.
Setting [7] is: Basal (before renal ablation and treatment).
Where [8] appears, read: 15 min after single i.v. dose equimolar to 3 mg/Kg enalapril.
[9] abbreviates: 30 min after single i.v. dose equimolar to 3 mg/Kg enalapril.
The mark [10] stands for this setting: 1 h after single i.v. dose equimolar to 3 mg/Kg enalapril.
[11] abbreviates: 3 hs after single i.v. dose equimolar to 3 mg/Kg enalapril.
The mark [12] stands for this setting: 6 hs after single i.v. dose equimolar to 3 mg/Kg enalapril.
The mark [13] stands for this setting: 24 hs after single i.v. dose equimolar to 3 mg/Kg enalapril.

Consider `CCOC(=O)[C@H](CCc1ccccc1)N[C@@H](C)C(=O)N1CCC[C@H]1C(=O)OCCCO[N+](=O)[O-].O=C(O)/C=C\C(=O)O` [Compound of Ex. 3, N-[(1S)-1-(Ethoxycarbonyl)-3-phenylpropyl]-L-alanyl-L-proline 3-nitrooxypropyl ester hydrogen maleate], for which the IC50 – broadly, the concentration that gives 50% inhibition – in data set [1] was determined as 30.9 ± 8.4 µM. The “Proteinuria (mg/day) ± sem” value in data set [2] (setting [5]) worked out at 163.9 mg/day; in data set [2] (setting [6]) it was 76.5 ± 20.3 mg/day; in data set [2] (setting [7]), 17.5 ± 1.3 mg/day. For the same compound, in data set [2], the “effect on proteinuria (in words)” value is recorded as “reduced proteinuria at 3 months”. Also, the “ACE Activity (% of activity)” value amounted to 2.9% on ACE (setting [8]); 3.7% at ACE (setting [9]); 4.1% at ACE (setting [10]); 11.1% on ACE (setting [11]); 49.2% on ACE (setting [12]); 83.55% at ACE (setting [13]). Moreover, the “Systolic blood pressure (mmHg)” value was found to be 120 mmHg in data set [3] (1st day of oral treatment), 117 mmHg in data set [3] (2nd day of oral treatment) and 115 mmHg in data set [3] (3rd day of oral treatment). Further, in data set [3] (oral, equimolar dose), the “effects on L-NAME-induced hypertension compared with enalapril (in words)” value was “superior to those of enalapril”. Further, the “decrease in blood pressure compared with enalapril (in words)” value in the data set with SHR rats is reported as “higher decrease in blood pressure than enalapril”. Also, the “NO-release rate compared with NO-ENA (in words)” value in data set [4] is given as “much slower than the NO-release of NO-ENA”.
For `CCOC(=O)[C@H](CCc1ccccc1)N[C@@H](C)C(=O)N1CCC[C@H]1C(=O)Oc1cccc(CO[N+](=O)[O-])c1.O=C(O)/C=C\C(=O)O` [NO-ENA, enalapril 3-(nitrooxymethyl)phenyl ester maleate], the “ACE Activity (% of activity)” value at ACE (setting [8]) is reported as 5.4%; at ACE (setting [9]) it was 4.8%; on ACE (setting [10]) it was 9.3%; at ACE (setting [11]), 23.6%; on ACE (setting [12]), 55.2%; on ACE (setting [13]) it was 90.1%.
Regarding `CCOC(=O)[C@H](CCc1ccccc1)N[C@@H](C)C(=O)N1CCC[C@H]1C(=O)O` [Enalapril], the IC50 in data set [1] was above 100 µM. For the same compound, the “relaxation of NA-contracted aortic rings (in words)” value in data set [1] (cumulative concentration-response curve) is recorded as “did not produce relaxation at any of the concentration tested”. The “Proteinuria (mg/day) ± sem” value in data set [2] (setting [5]) is 290.5 ± 43.2 mg/day; in data set [2] (setting [6]), 72.4 ± 18.3 mg/day; in data set [2] (setting [7]), 15.7 ± 1.2 mg/day. The “effect on proteinuria (in words)” value in data set [2] was “only a marginal effect”. Further, the “ACE Activity (% of activity)” value is 4.8% at ACE (setting [8]); 5.1% on ACE (setting [9]); 7.3% on ACE (setting [10]); 19.6% at ACE (setting [11]); 50.8% at ACE (setting [12]); 100% on ACE (setting [13]). Further, the results for the “Systolic blood pressure (mmHg)” value in data set [3] (1st day of oral treatment), in data set [3] (2nd day of oral treatment) and in data set [3] (3rd day of oral treatment) were 128 mmHg, 125 mmHg and 120 mmHg, respectively.
Consider `C[C@H](N[C@@H](CCc1ccccc1)C(=O)OCCCO[N+](=O)[O-])C(=O)N1CCC[C@H]1C(=O)O` [Compound of Ex. 1, N-[(1S)-1-(3-nitrooxypropoxycarbonyl)-3-phenylpropyl]-L-alanyl-L-proline hydrochloride], for which the half-maximal inhibitory concentration (IC50) in data set [1] was determined as 21.9 ± 6.9 µM.
